{"source": "patent US8541418B2", "about": "“Inhibitors of polo-like kinase” (Elan Pharmaceutical, Inc., priority 2009, dated 2013)", "format_in_all_cases": "biochemical", "key": {"[1]": {"target": "PLK1 (Homo sapiens, UniProt P53350)", "sequence (P53350 whole entry)": "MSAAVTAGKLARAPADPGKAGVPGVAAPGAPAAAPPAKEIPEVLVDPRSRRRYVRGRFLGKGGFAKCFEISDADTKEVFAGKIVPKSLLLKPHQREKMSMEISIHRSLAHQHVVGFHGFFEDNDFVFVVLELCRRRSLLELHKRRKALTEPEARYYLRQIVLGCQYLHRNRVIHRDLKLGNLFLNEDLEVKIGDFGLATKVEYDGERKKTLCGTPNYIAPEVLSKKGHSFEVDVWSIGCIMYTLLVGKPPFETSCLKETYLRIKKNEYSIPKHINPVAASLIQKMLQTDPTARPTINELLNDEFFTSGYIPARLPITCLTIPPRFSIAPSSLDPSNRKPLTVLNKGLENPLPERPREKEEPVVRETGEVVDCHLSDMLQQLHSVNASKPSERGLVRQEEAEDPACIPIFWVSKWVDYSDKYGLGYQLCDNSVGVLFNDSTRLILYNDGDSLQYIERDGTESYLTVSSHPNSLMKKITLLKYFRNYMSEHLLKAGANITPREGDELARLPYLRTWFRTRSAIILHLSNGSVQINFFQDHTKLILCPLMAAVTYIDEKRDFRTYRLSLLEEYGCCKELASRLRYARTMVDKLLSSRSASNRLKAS", "test": "PLK TR-FRET peptide assay, PLK1", "conditions": "GST-PLK1, 60 min reaction"}, "[2]": {"target": "PLK2 (Homo sapiens, UniProt Q9NYY3)", "sequence (Q9NYY3 whole entry)": "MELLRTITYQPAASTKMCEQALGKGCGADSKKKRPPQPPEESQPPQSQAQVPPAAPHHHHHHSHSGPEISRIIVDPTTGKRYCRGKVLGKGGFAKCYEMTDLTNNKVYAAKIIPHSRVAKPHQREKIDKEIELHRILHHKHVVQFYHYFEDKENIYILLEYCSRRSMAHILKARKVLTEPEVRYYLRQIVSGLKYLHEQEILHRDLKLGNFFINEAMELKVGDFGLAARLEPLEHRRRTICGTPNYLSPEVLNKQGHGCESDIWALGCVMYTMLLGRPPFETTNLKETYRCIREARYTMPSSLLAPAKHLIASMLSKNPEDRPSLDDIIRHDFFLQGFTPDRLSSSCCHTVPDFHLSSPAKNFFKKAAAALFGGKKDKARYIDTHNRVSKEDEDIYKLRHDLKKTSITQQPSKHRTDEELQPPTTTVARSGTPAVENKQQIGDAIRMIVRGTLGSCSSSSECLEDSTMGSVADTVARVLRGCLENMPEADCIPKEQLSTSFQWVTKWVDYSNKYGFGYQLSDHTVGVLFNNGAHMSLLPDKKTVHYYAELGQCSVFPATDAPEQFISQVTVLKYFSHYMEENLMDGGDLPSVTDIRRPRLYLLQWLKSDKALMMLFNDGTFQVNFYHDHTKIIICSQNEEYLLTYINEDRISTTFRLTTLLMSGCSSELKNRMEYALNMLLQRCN", "test": "PLK TR-FRET peptide assay, PLK2", "conditions": "PLK TR-FRET peptide assay, GST-PLK2, 60 min reaction; read-out: Plk2 IC50"}, "[3]": {"target": "PLK3 (Homo sapiens, UniProt Q9H4B4)", "sequence (Q9H4B4 whole entry)": "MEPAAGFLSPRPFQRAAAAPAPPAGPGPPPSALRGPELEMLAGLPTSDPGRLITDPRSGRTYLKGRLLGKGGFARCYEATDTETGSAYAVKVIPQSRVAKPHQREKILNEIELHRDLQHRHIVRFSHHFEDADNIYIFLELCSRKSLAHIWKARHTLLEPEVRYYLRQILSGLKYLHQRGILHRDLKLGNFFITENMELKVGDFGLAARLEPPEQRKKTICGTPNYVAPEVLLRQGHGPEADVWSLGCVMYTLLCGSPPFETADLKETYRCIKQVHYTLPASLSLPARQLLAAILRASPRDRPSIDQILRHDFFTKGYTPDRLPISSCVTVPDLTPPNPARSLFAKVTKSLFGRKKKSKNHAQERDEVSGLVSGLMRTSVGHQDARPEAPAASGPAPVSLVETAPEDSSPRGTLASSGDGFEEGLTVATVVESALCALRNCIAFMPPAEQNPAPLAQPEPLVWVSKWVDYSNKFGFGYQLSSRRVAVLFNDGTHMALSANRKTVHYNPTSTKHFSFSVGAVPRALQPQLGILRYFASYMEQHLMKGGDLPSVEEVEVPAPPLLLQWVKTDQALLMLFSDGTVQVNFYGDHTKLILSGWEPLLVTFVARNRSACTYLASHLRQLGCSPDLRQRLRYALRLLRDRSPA", "test": "PLK TR-FRET peptide assay, PLK3", "conditions": "GST-PLK3, 15 min reaction, read-out: Plk3 IC50"}}}
{"smiles": "CC[C@@H]1C(=O)N(C)c2cnc(-n3ccnc3-c3ccccc3)nc2N1C1COC1", "note": "[Example 335, (R)-7-ethyl-5-methyl-8-(oxetan-3-yl)-2-(2-phenyl-1H-imidazol-1-yl)-7,8-dihydropteridin-6(5H)-one]", "values": [{"measurement": "IC50", "setting": "[1]", "value": "1 to 10", "unit": "µM"}, {"measurement": "IC50", "setting": "[2]", "value": "< 1", "unit": "µM"}, {"measurement": "IC50", "setting": "[3]", "value": "10 to 50", "unit": "µM"}]}
{"smiles": "CCC1C(=O)N(C)c2cnc(-n3ccnc3)nc2N1c1cccc(-n2cccn2)c1", "note": "(stereo not drawn) [Example 336, 8-(3-(1H-pyrazol-1-yl)phenyl)-7-ethyl-2-(1H-imidazol-1-yl)-5-methyl-7,8-dihydropteridin-6(5H)-one]", "values": [{"measurement": "IC50", "setting": "[1]", "value": "10 to 50", "unit": "µM"}, {"measurement": "IC50", "setting": "[2]", "value": "10 to 50", "unit": "µM"}, {"measurement": "IC50", "setting": "[3]", "value": "> 50", "unit": "µM"}]}
{"smiles": "CC[C@@H]1C(=O)N(C)c2cnc(-c3sc(N)nc3-c3ccn[nH]3)nc2N1C(C)C", "note": "[Example 337, (R)-2-(2-amino-4-(1H-pyrazol-5-yl)thiazol-5-yl)-7-ethyl-8-isopropyl-5-methyl-7,8-dihydropteridin-6(5H)-one]", "values": [{"measurement": "IC50", "setting": "[1]", "value": "1 to 10", "unit": "µM"}, {"measurement": "IC50", "setting": "[2]", "value": "< 1", "unit": "µM"}, {"measurement": "IC50", "setting": "[3]", "value": "1 to 10", "unit": "µM"}]}
{"smiles": "CC[C@@]12CCCN1c1nc(-c3cn[nH]c3-c3nccs3)ncc1N(C)C2=O", "note": "[Example 338, (S)-6a-ethyl-5-methyl-2-(5-(thiazol-2-yl)-1H-pyrazol-4-yl)-6a,7,8,9-tetrahydropyrrolo[2,1-h]pteridin-6(5H)-one]", "values": [{"measurement": "IC50", "setting": "[1]", "value": "> 50", "unit": "µM"}, {"measurement": "IC50", "setting": "[2]", "value": "10 to 50", "unit": "µM"}, {"measurement": "IC50", "setting": "[3]", "value": "> 50", "unit": "µM"}]}
{"smiles": "CN1C(=O)C2(CC(F)(F)F)CCCN2c2nc(-n3ccnc3-c3ccccc3)ncc21", "note": "(stereo not drawn) [Example 339, 5-methyl-2-(2-phenyl-1H-imidazol-1-yl)-6a-(2,2,2-trifluoroethyl)-6a,7,8,9-tetrahydropyrrolo[2,1-h]pteridin-6(5H)-one]", "values": [{"measurement": "IC50", "setting": "[1]", "value": "10 to 50", "unit": "µM"}, {"measurement": "IC50", "setting": "[2]", "value": "< 1", "unit": "µM"}, {"measurement": "IC50", "setting": "[3]", "value": "10 to 50", "unit": "µM"}]}
{"smiles": "CC[C@@H]1CC[C@@]2(CC)C(=O)N(C)c3cnc(-c4cn[nH]c4-c4nccs4)nc3N12", "note": "[Example 340, (6aS,9R)-6a,9-diethyl-5-methyl-2-(5-(thiazol-2-yl)-1H-pyrazol-4-yl)-6a,7,8,9-tetrahydropyrrolo[2,1-h]pteridin-6(5H)-one]", "values": [{"measurement": "IC50", "setting": "[1]", "value": "< 1", "unit": "µM"}, {"measurement": "IC50", "setting": "[2]", "value": "< 1", "unit": "µM"}, {"measurement": "IC50", "setting": "[3]", "value": "1 to 10", "unit": "µM"}]}
{"smiles": "CC[C@@H]1C(=O)N(C)c2cnc(-n3ccnc3-c3ccc(F)c(F)c3)nc2N1C1COC1", "note": "[Example 341, (R)-2-(2-(3,4-difluorophenyl)-1H-imidazol-1-yl)-7-ethyl-5-methyl-8-(oxetan-3-yl)-7,8-dihydropteridin-6(5H)-one]", "values": [{"measurement": "IC50", "setting": "[1]", "value": "> 50", "unit": "µM"}, {"measurement": "IC50", "setting": "[2]", "value": "1 to 10", "unit": "µM"}, {"measurement": "IC50", "setting": "[3]", "value": "> 50", "unit": "µM"}]}
{"smiles": "CCC1C(=O)N(C)c2cnc(-n3ccnc3-c3ccc(F)cc3)nc2N1c1cccc(-c2cncnc2)c1", "note": "(stereo not drawn) [Example 346, 7-ethyl-2-(2-(4-fluorophenyl)-1H-imidazol-1-yl)-5-methyl-8-(3-(pyrimidin-5-yl)phenyl)-7,8-dihydropteridin-6(5H)-one]", "values": [{"measurement": "IC50", "setting": "[1]", "value": "1 to 10", "unit": "µM"}, {"measurement": "IC50", "setting": "[2]", "value": "< 1", "unit": "µM"}, {"measurement": "IC50", "setting": "[3]", "value": "1 to 10", "unit": "µM"}]}
{"smiles": "CC[C@@H]1C(=O)N(C)c2cnc(-c3sc(Br)nc3-c3ccc(F)cc3)nc2N1C(C)C", "note": "[Example 347, (R)-2-(2-bromo-4-(4-fluorophenyl)thiazol-5-yl)-7-ethyl-8-isopropyl-5-methyl-7,8-dihydropteridin-6(5H)-one]", "values": [{"measurement": "IC50", "setting": "[1]", "value": "> 50", "unit": "µM"}, {"measurement": "IC50", "setting": "[2]", "value": "< 1", "unit": "µM"}, {"measurement": "IC50", "setting": "[3]", "value": "> 50", "unit": "µM"}]}
{"smiles": "CC[C@@H]1C(=O)N(C)c2cnc(-c3scnc3-c3ccn[nH]3)nc2N1C(C)C", "note": "[Example 348, (R)-2-(4-(1H-pyrazol-5-yl)thiazol-5-yl)-7-ethyl-8-isopropyl-5-methyl-7,8-dihydropteridin-6(5H)-one]", "values": [{"measurement": "IC50", "setting": "[1]", "value": "1 to 10", "unit": "µM"}, {"measurement": "IC50", "setting": "[2]", "value": "< 1", "unit": "µM"}, {"measurement": "IC50", "setting": "[3]", "value": "1 to 10", "unit": "µM"}]}
{"smiles": "CC[C@@H]1C(=O)N(C)c2cnc(-n3ccnc3-c3ccccc3)nc2N1C(C)C1CC1", "note": "(stereo partly drawn) [Example 350, (7R)-8-(1-cyclopropylethyl)-7-ethyl-5-methyl-2-(2-phenyl-1H-imidazol-1-yl)-7,8-dihydropteridin-6(5H)-one]", "values": [{"measurement": "IC50", "setting": "[1]", "value": "< 1", "unit": "µM"}, {"measurement": "IC50", "setting": "[2]", "value": "< 1", "unit": "µM"}, {"measurement": "IC50", "setting": "[3]", "value": "< 1", "unit": "µM"}]}
